Test results published in PubChem BioAssay AID2060494 (Molecular Pharmacology Branch, DTP, NCI, 2025).

Test system: 435261-313-R-J1-PDC complex spheroid viability
Experiment: Anticancer human tumor 435261-313-R-J1-PDC patient-derived colon adenocarcinoma cell line growth inhibition [GQUAD]
Conditions: for IC50: curve of first compound; for viability, T/C: stronger effect = lower value
In short: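 Multi-cell-type spheroids of tumor cells with HUVEC and mesenchymal stem cells, treated with drug combinations. Concentrations descend in half-log steps from near clinical Cmax, or from 10 microM where Cmax is unknown; viability read-out.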

[1] = second compound 0.0316 µM, first compound 0.000999 µM
[2] = second compound 0.0316 µM, first compound 0.00316 µM
[3] = second compound 0.0316 µM, first compound 0.00999 µM
[4] = second compound 0.0316 µM, first compound 0.0316 µM
[5] = second compound 0.0316 µM, first compound 0.0999 µM
[6] = second compound 0.0316 µM, first compound 0.316 µM
[7] = second compound 0.1 µM, first compound 0.000999 µM
[8] = second compound 0.1 µM, first compound 0.00316 µM
[9] = second compound 0.1 µM, first compound 0.00999 µM
[10] = second compound 0.1 µM, first compound 0.0316 µM
[11] = second compound 0.1 µM, first compound 0.0999 µM
[12] = second compound 0.1 µM, first compound 0.316 µM
[13] = second compound 0.316 µM, first compound 0.000999 µM
[14] = second compound 0.316 µM, first compound 0.00316 µM
[15] = second compound 0.316 µM, first compound 0.00999 µM
[16] = second compound 0.316 µM, first compound 0.0316 µM
[17] = second compound 0.316 µM, first compound 0.0999 µM
[18] = second compound 0.316 µM, first compound 0.316 µM
[19] = second compound 1 µM, first compound 0.000999 µM
[20] = second compound 1 µM, first compound 0.00316 µM
[21] = second compound 1 µM, first compound 0.00999 µM
[22] = second compound 1 µM, first compound 0.0316 µM
[23] = second compound 1 µM, first compound 0.0999 µM
[24] = second compound 1 µM, first compound 0.316 µM
[25] = second compound 3.16 µM, first compound 0.000999 µM
[26] = second compound 3.16 µM, first compound 0.00316 µM
[27] = second compound 3.16 µM, first compound 0.00999 µM
[28] = second compound 3.16 µM, first compound 0.0316 µM
[29] = second compound 3.16 µM, first compound 0.0999 µM
[30] = second compound 3.16 µM, first compound 0.316 µM
[31] = second compound 10 µM, first compound 0.000999 µM
[32] = second compound 10 µM, first compound 0.00316 µM
[33] = second compound 10 µM, first compound 0.00999 µM
[34] = second compound 10 µM, first compound 0.0316 µM
[35] = second compound 10 µM, first compound 0.0999 µM
[36] = second compound 10 µM, first compound 0.316 µM
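Also: spheroids exposed to the agents for seven days before readout.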
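For viability, T/C in this document: percent of vehicle control viability with DMSO wells as 100%.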

## CC[C@@]1(O)C(=O)OCc2c1cc1n(c2=O)Cc2cc3c(CN(C)C)c(O)ccc3nc2-1 + Cc1cnc(CNC(=O)c2c(=O)c3ccc(N4CCCN(C)CC4)nc3n3c2sc2ccccc23)cn1
Second compound 0.0316 µM
  IC50: > 316 nM
Second compound 0.1 µM
  IC50: > 316 nM
Second compound 0.316 µM
  IC50: 113 nM
Second compound 1 µM
  IC50: < 0.999 nM
Second compound 3.16 µM
  IC50: < 0.999 nM
Second compound 10 µM
  IC50: < 0.999 nM
[1]
  viability, T/C: 66.6%
[2]
  viability, T/C: 63%
[3]
  viability, T/C: 73%
[4]
  viability, T/C: 53%
[5]
  viability, T/C: 60.6%
[6]
  viability, T/C: 72.1%
[7]
  viability, T/C: 57.3%
[8]
  viability, T/C: 69%
[9]
  viability, T/C: 58.7%
[10]
  viability, T/C: 50.9%
[11]
  viability, T/C: 63.2%
[12]
  viability, T/C: 53.4%
[13]
  viability, T/C: 53.1%
[14]
  viability, T/C: 59.2%
[15]
  viability, T/C: 50.5%
[16]
  viability, T/C: 55.8%
[17]
  viability, T/C: 46.2%
[18]
  viability, T/C: 49.3%
[19]
  viability, T/C: 31.9%
[20]
  viability, T/C: 48.8%
[21]
  viability, T/C: 35.2%
[22]
  viability, T/C: 43.4%
[23]
  viability, T/C: 47.6%
[24]
  viability, T/C: 34.1%
[25]
  viability, T/C: 16.9%
[26]
  viability, T/C: 20.2%
[27]
  viability, T/C: 21.8%
[28]
  viability, T/C: 16%
[29]
  viability, T/C: 12.1%
[30]
  viability, T/C: 8.56%
[31]
  viability, T/C: 0.19%
[32]
  viability, T/C: 0.19%
[33]
  viability, T/C: 0.22%
[34]
  viability, T/C: 0.23%
[35]
  viability, T/C: 0.23%
[36]
  viability, T/C: 0.22%

## CCc1c2c(nc3ccc(O)cc13)-c1cc3c(c(=O)n1C2)COC(=O)[C@]3(O)CC + Cc1cnc(CNC(=O)c2c(=O)c3ccc(N4CCCN(C)CC4)nc3n3c2sc2ccccc23)cn1
Second compound 0.0316 µM
  IC50: 53.2 nM
Second compound 0.1 µM
  IC50: 48 nM
Second compound 0.316 µM
  IC50: 11.2 nM
Second compound 1 µM
  IC50: < 0.999 nM
Second compound 3.16 µM
  IC50: < 0.999 nM
Second compound 10 µM
  IC50: < 0.999 nM
[1]
  viability, T/C: 63.5%
[2]
  viability, T/C: 60.3%
[3]
  viability, T/C: 56.9%
[4]
  viability, T/C: 53.3%
[5]
  viability, T/C: 47%
[6]
  viability, T/C: 30.9%
[7]
  viability, T/C: 66.2%
[8]
  viability, T/C: 65.6%
[9]
  viability, T/C: 52.2%
[10]
  viability, T/C: 52.7%
[11]
  viability, T/C: 47.1%
[12]
  viability, T/C: 17.5%
[13]
  viability, T/C: 52.9%
[14]
  viability, T/C: 60%
[15]
  viability, T/C: 51.5%
[16]
  viability, T/C: 34.5%
[17]
  viability, T/C: 36.9%
[18]
  viability, T/C: 1.36%
[19]
  viability, T/C: 38.9%
[20]
  viability, T/C: 35%
[21]
  viability, T/C: 35.6%
[22]
  viability, T/C: 28.7%
[23]
  viability, T/C: 14.9%
[24]
  viability, T/C: 0.15%
[25]
  viability, T/C: 13.5%
[26]
  viability, T/C: 12.2%
[27]
  viability, T/C: 4.86%
[28]
  viability, T/C: 0.17%
[29]
  viability, T/C: 0.14%
[30]
  viability, T/C: 0.15%
[31]
  viability, T/C: 0.15%
[32]
  viability, T/C: 0.14%
[33]
  viability, T/C: 0.19%
[34]
  viability, T/C: 0.2%
[35]
  viability, T/C: 0.2%
[36]
  viability, T/C: 0.14%
